Counter-ions that a name gives are not always drawn.
Tests used:
S.D. line male rats [1] = test: Antidepressant effect, compelled swim test (Porsolt), time over which rats remain motionless; type: in vivo, rat; set-up: Antidepressant effect / Antidepressant effect, longevity: scale not given here; details: for inhibition in vivo at 20 mg/kg: Rattus norvegicus, po, 0.5 h, 30 min before swim, read-out: Antidepressant effect, Efficacy
Method: An antidepression test was conducted in accordance with the method of Porsolt et al. (Europ. J. Pharmacol., 47, 379-391, 1978). Stated more specifically, 7-wk old S.D. line male rats were placed in a glass cylinder (18 cm^.phi. ×40 cm^H) for 15 min. The cylinder was filled with water (25° C.) to a depth of 15 cm. Thereafter, the rats were placed in a hot environment (32° C.) for 15 min before they were returned to the cage. Twenty-four hours later, the rats were compelled again to swim in the same cylinder for 5 min and the total time over which the rats remained motionless was measured. A test drug was administered perorally to each animal 30 min before it was compelled to swim for 5 min. Antidepressant agents are known to be capable of specifically reducing the time over which the rats would remain motionless (Psyehopharmaeol., 83, 1-16, 1984, and ibid., 94, 147-160, 1988). The antidepressant effect was calculated by the following formula: [formula]
(§1) The procedure of Test Examples 2 and 3 were repeated except that test compounds were administered perorally in a dose of 10 mg/kg.
(§2) The procedures of Test Example 2 and 3 were repeated, except that test compounds were administered perorally in a dose of 20 mg/kg to check the longevity of their antianxiety and antidepressant effects for 0.5, 2 and 4 h.

serotonin 2 receptor = biological target: T1, serotonin 2 receptor (Rattus norvegicus, UniProt P14842); test: Serotonin 2 receptor binding experiment (3H-ketancerine); details: rat cortex and hippocampal tissue; 0.5 nM 3H-ketancerine; IC50 in M; read-out: -logIC50 5-HT2 (converted)
T1 construct: the cortex and hippocampal tissue were extracted from the brain; from tissue; host or cells: brain cortex and hippocampus of 7-week-old male S.D. rats, washed membrane homogenate
Method: (§3) Affinity for intracerebral serotonin 1A and serotonin 2 receptor was checked in accordance with the method of Hall et al. (J. Neurochem., 44, 1685-1695, 1985) and the method of Leysen et al. (Mol. Pharmacol., 21, 301-314, 1982).
(§4) Stated more specifically, the cortex and hippocampal tissue were extracted from the brain of 7-wk old S.D. line male rats, mixed with 20 volumes of Tris-HCl buffer (50 mM, pH 7.7) and homogenized with a Teflon homogenizer. Thereafter, the homogenate was centrifuged at 39800×g for 20 min and the supernatant was discarded. Forty volumes of a buffer were added to the precipitate and the mixture was homogenized with a Polytron homogenizer, with the homogenate being centrifuged under the same condition as set forth above. The same procedure was repeated two more times and the final precipitate was homogenized with 40 volumes of a buffer; thereafter, the homogenate was stored at least overnight at -80° C. On the day when binding experiments were to be conducted, the homogenate was thawed at room temperature and incubated at 37° C. for 20 min to remove the endogenous serotonin.
(§5) Thereafter, centrifugation was conducted at 39800×g for 20 min and 40 volumes of a buffer were added to the precipitate, followed by homogenization. This procedure was repeated three times; to the final precipitate, a buffer was added in 65 volumes for the case of serotonin 1A receptor and in 80 volumes for the case of serotonin 2 receptor and the mixture was homogenized in preparation for the binding experiments that are described below. All procedures of experimentation except storage in a frozen state and thawing at room temperature were conducted at 4° C. or below.
A reaction solution containing 0.5 nM (final concentration) of ^3 H-ketancerine and 500 μl of brain homogenate in 1.0 ml (final volume) of a buffer was incubated at 30° C. for 30 min. Subsequent procedures were the same as in the serotonin 1A receptor binding experiment and IC50 (M) was determined accordingly. To determine the amount of specific binding, the amount of binding in the presence of excess unlabelled methysergide ([…]) was subtracted from the total amount of binding.

serotonin 1A receptor = biological target: T2, serotonin 1A receptor (Rattus norvegicus, UniProt P19327); test: Serotonin 1A receptor binding experiment (3H-8-OH-DPAT); details: rat cortex and hippocampal tissue; 0.5 nM 3H-8-OH-DPAT; IC50 in M; read-out: -logIC50 5-HT1A (converted)
T2 construct: the cortex and hippocampal tissue were extracted from the brain; from tissue; host or cells: brain cortex and hippocampus of 7-week-old male S.D. rats, washed membrane homogenate
T2 sequence (P19327 1-422): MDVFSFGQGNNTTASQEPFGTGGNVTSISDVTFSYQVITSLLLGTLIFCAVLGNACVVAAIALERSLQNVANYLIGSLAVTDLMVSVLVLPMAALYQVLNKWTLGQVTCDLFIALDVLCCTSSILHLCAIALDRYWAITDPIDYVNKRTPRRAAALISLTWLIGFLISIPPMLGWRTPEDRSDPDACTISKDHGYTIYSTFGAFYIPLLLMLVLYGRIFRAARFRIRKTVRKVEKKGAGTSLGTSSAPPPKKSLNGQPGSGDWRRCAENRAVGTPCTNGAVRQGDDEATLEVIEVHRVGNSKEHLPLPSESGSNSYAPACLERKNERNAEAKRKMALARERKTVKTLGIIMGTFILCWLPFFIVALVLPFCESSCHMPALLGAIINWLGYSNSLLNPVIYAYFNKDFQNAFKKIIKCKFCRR
Method: as §3, §4, §5
A reaction solution containing 0.5 nM (final concentration) of 3H-8-hydroxy-2-(di-n-propylamino)tetralin (8-OH-DPAT), […] and 500 μl of brain homogenate in 1.0 ml (final volume) of a buffer was incubated at 25° C. for 30 min. Thereafter, the reaction solution was filtered by rapid passage through a glass filler. The filter was washed rapidly with an ice-cooled buffer (3 ml) three times, put into a scintillation vial together with a scintillation cocktail, and left to stand overnight at 4° C. On the next day, the vial was agitated well and measurements were conducted with a scintillation counter. To determine the amount of specific binding, the amount of binding in the presence of excess unlabeled serotonin (10 μM) was subtracted from the total amount of binding. As an index for the affinity of a test compound for either receptor, the concentration at which the specific binding of ^3 H-DPAT was inhibited by 50% (IC50, M) was determined using computer software EBDA/LIGAND (Biosoft).

S.D. line male rats [2] = test: Antianxiety effect, water drinking under punishment (Vogel); type: in vivo, rat; set-up: Antianxiety effect / Antianxiety effect, longevity: unit not given here; details: for Antianxiety and antidepressant effects: Table 6; for change in vivo at 20 mg/kg: Rattus norvegicus, po, read-out: Antianxiety effect, Efficacy
Method: Antianxiety test was conducted in accordance with a method adapted from the method of Vogel et al. (Psychopharmacol., 21, 1-7, 1971). Stated more specifically, S.D. line male rats weighing 250-300 g were entirely kept from water for 24 h and then placed in a concrete experimental box. […] The bottom of the box was made of a stainless steel grid, from which electric shock (0.2 mA, 0.5 sec) could be applied to the limbs of rats. The test schedule was as follows: first, the rats were acclimatized to the experimental box and trained for drinking water; this was done for 3 min without electric shock. The quantity of water drunk by the rats was then measured (under non-punishment). Then, the rats were kept from drinking water for 24 h. Thereafter, the quantity of water drunk by each rat was measured (before administration of test compound) under such conditions that an electric shock was applied each time a rat drank one water drop (under punishment).Thirty minutes later, a test drug was administered perorally and after an additional 20 min, the quantity of water drunk by each rat was again measured under punishment (after administration of test compound). The quantity of water drunk by rats will decrease under punishment but it is known that the initial level can be restored by administering an antianxiety agent.
The antianxiety effect of a test compound was calculated by the following formula: [formula]
as §1, §2

[3] = peroral 20 mg/kg, 0.5 h after administration
[4] = peroral 20 mg/kg, 2.0 h after administration
[5] = peroral 20 mg/kg, 4.0 h after administration

T1 sequence (P14842 whole entry): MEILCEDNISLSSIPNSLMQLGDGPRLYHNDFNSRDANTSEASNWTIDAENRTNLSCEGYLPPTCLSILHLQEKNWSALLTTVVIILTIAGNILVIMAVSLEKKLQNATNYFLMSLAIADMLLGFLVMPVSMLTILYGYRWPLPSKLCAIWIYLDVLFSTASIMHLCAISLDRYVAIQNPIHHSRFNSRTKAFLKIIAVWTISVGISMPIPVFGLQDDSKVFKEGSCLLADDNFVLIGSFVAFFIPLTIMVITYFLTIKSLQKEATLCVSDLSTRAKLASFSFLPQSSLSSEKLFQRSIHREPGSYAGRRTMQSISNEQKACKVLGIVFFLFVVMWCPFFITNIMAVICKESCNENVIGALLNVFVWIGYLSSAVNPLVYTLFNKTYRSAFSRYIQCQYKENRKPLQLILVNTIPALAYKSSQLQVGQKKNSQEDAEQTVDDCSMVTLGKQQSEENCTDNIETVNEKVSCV

SMILES	Antidepressant effect (S.D. line male rats [1]; peroral 10 mg/kg)	Antidepressant effect, longevity (S.D. line male rats [1]; [3])	Antidepressant effect, longevity (S.D. line male rats [1]; [4])	Antidepressant effect, longevity (S.D. line male rats [1]; [5])	IC50 (serotonin 2 receptor) [nM]	IC50 (serotonin 1A receptor) [nM]	Antianxiety effect (S.D. line male rats [2]; peroral 10 mg/kg)	Antianxiety and antidepressant effects (S.D. line male rats [2]; peroral 10 mg/kg)	Antianxiety effect, longevity (S.D. line male rats [2]; [3])	Antianxiety effect, longevity (S.D. line male rats [2]; [4])	Antianxiety effect, longevity (S.D. line male rats [2]; [5])	inhibition in vivo at 20 mg/kg (S.D. line male rats [1]; peroral 20 mg/kg) [%]	Antidepressant effect (S.D. line male rats [1]; peroral 20 mg/kg)	change in vivo at 20 mg/kg (S.D. line male rats [2]; peroral 20 mg/kg) [%]	Antianxiety effect (S.D. line male rats [2]; peroral 20 mg/kg)
Cc1cccc2c1OC(CNCCNC(=O)C13CC4CC(CC(C4)C1)C3)CO2 (single isomer, unassigned; (-)) [Compound 7, (-)-N-{[2-(8-methyl-1,4-benzodioxan-2ylmethyl)amino]ethyl}tricyclo[3,3,1^3, ^7]decane-1carboxyamide hydrochloride]	62.7 ± 12.4	72.1	76.9	38.1	15.8	0.316	45.4 ± 3.4	superiority	66.0	51.6	26.1	–	–	–	–
O=C(NCCNCC1COc2ccccc2O1)C12CC3CC(CC(C3)C1)C2 (stereo not drawn) [Compound 2, N-{[2-(1,4-benzodioxan-2-ylmethyl)amino]ethyl}tricyclo[3,3,1,1^3, ^7]decane-1-carboxyamide]	–	–	–	–	35.5	302	–	–	–	–	–	85 ± 8.5	better antidepressant effects than WY-50324	39.3 ± 10.8	almost comparable effects to WY-50324
Cc1ccc2c(c1)OCC(CNCCNC(=O)C13CC4CC(CC(C4)C1)C3)O2 (stereo not drawn) [Compound 3, N-{[2-(6-methyl-1,4-benzodioxan-2ylmethyl)amino]ethyl}tricyclo[3,3,1,1^3, ^7]decane-1-carboxyamide]	–	–	–	–	23.4	2.51	–	–	–	–	–	56.8 ± 9	almost comparable effects to WY-50324	63.9 ± 6.8	comparable effects to MDL-73005
O=C(NCCNCC1COc2ccc(Cl)cc2O1)C12CC3CC(CC(C3)C1)C2 (stereo not drawn) [Compound 4, N-{[2-(7-chloro-1,4-benzodioxan-2ylmethyl)amino]ethyl}tricyclo[3,3,1,1^3, ^7]decane-1-carboxyamide]	–	–	–	–	42.7	5.13	–	–	–	–	–	51.9 ± 8.2	almost comparable effects to WY-50324	76.8 ± 13.7	comparable effects to MDL-73005
COc1cccc2c1OC(CNCCNC(=O)C13CC4CC(CC(C4)C1)C3)CO2 (stereo not drawn) [Compound 5, N-{[2-(8-methoxy-1,4-benzodioxan-2ylmethyl)amino]ethyl}tricyclo[3,3,1,1^3'7]decane-1-carboxyamide]	–	–	–	–	10	0.347	–	–	–	–	–	97.6 ± 0.9	better antidepressant effects than WY-50324	40.9 ± 7.3	almost comparable effects to WY-50324
COc1cccc2c1OCC(CNCCNC(=O)C13CC4CC(CC(C4)C1)C3)O2 (stereo not drawn) [Compound 6, N-{[2-(5-methoxy-1,4-benzodioxan-2-ylmethyl)amino]ethyl}tricyclo[3,3,1^3, ^7]decane-1-carboxyamide]	–	–	–	–	75.9	4.07	–	–	–	–	–	82.2 ± 6.6	better antidepressant effects than WY-50324	28.7 ± 9.5	–
Nc1ccc2c(c1)OC(CNCCNC(=O)C13CC4CC(CC(C4)C1)C3)CO2 (stereo not drawn) [Compound 12, N-{[2-(7-amino-1,4-benzodioxan-2-ylmethyl)amino]ethyl}tricyclo[3,3,1,1^3, ^7]decane-1-carboxyamide]	–	–	–	–	200	0.398	52.1 ± 2.5	superiority	–	–	–	57 ± 5.9	almost comparable effects to WY-50324	–	–
COc1ccc2c(c1)OC(CNCCNC(=O)C13CC4CC(CC(C4)C1)C3)CO2 (stereo not drawn) [Compound 14, N-{[2-(7-methoxy-1,4-benzodioxan-2-ylmethyl)amino]ethyl}tricyclo[3,3,1,1^3, ^7]decane-1-carboxyamide]	–	–	–	–	25.1	0.398	–	–	–	–	–	46.9 ± 7.1	–	–	–
O=C(NCCNCC1COc2cc(O)ccc2O1)C12CC3CC(CC(C3)C1)C2 (stereo not drawn) [Compound 16, N-{[2-(6-hydroxy-1,4-benzodioxan-2ylmethyl)amino]ethyl}tricyclo[3,3,1,1^3, ^7]decane-1-carboxyamide]	–	–	–	–	158	2.51	–	–	–	–	–	–	–	46.5 ± 4.7	almost comparable effects to WY-50324
O=C(NCCNCC1COc2ccc(O)cc2O1)C12CC3CC(CC(C3)C1)C2 (stereo not drawn) [Compound 17, N-{[2-(7-hydroxy-1,4-benzodioxan-2ylmethyl)amino]ethyl}tricyclo[3,3,^3, ^7]decane-1-carboxyamide]	–	–	–	–	251	0.251	–	–	–	–	–	–	–	66.6 ± 8.7	comparable effects to MDL-73005
O=C(NCCNCC1COc2cccc(O)c2O1)C12CC3CC(CC(C3)C1)C2 (stereo not drawn) [Compound 18, N-{[2-(8-hydroxy-1,4-benzodioxan-2ylmethyl)amino]ethyl}tricyclo[^3,3,1,1^3, ^7]decane-1-carboxyamide]	–	–	–	–	50.1	0.158	–	–	–	–	–	78.5 ± 4.5	better antidepressant effects than WY-50324	80.1 ± 6.1	better effects than MDL-73005
